This test deals with PDE4D3 (Homo sapiens, UniProt Q08499).
PDE4D3, sequence (Q08499 1-673 isoform Q08499-2): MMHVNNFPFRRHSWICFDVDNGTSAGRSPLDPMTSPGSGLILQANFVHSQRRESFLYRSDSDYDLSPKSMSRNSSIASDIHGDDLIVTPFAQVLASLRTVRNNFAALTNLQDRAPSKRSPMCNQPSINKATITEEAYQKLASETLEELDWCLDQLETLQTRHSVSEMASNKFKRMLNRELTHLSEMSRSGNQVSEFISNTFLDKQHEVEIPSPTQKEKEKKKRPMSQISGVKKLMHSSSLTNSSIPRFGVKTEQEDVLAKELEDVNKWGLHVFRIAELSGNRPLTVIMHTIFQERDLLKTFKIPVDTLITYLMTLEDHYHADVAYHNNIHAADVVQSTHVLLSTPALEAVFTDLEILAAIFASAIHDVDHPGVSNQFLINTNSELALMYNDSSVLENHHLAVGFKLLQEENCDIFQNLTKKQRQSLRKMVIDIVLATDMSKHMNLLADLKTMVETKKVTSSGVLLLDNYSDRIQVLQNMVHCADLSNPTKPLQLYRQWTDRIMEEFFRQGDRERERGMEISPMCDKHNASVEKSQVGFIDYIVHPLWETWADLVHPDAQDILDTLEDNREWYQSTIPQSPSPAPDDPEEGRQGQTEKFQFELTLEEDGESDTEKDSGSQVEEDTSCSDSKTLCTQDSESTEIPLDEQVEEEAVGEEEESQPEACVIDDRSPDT
What is called EC50 is the concentration at which the effect is half-maximal. `COc1ncc(Cn2cc(Cl)cn2)cc1-c1cccc(Cl)c1` [Example 178, 5-[(4-Chloro-1H-pyrazol-1-yl)methyl]-3-(3-chlorophenyl)-2-methoxypyridine] gave a 50% effective concentration (EC50) of 0.1 to 1 µM.

Take `Nc1ccc(Cc2cnc(OC(F)F)c(-c3cccc(Cl)c3)c2)nn1` [Example 111, 6-{[5-(3-Chlorophenyl)-6-(difluoromethoxy)pyridin-3-yl]methyl}pyridazin-3-amine]: the 50% effective concentration (EC50) was in the range of 0.1 to 1 µM.

In turn, `Fc1cccc(-c2cc(Cn3cncn3)cnc2OC(F)F)c1` [Example 174, 2-(Difluoromethoxy)-3-(3-fluorophenyl)-5-(1H-1,2,4-triazol-1-ylmethyl)pyridine] yielded an EC50 of less than 0.1 µM.

With `CCOc1ncc(Cn2ccc(C(N)=O)n2)cc1-c1cccc(Cl)c1` [Example 168, 1-{[5-(3-Chlorophenyl)-6-ethoxypyridin-3-yl]methyl}-1H-pyrazole-3-carboxamide], the EC50 is less than 0.1 µM.

For the compound `COc1ncc(Cn2cnc(C)n2)cc1-c1cccc(OC(F)F)c1` [Example 155, 3-[3-(Difluoromethoxy)phenyl]-2-methoxy-5-[(3-methyl-1H-1,2,4-triazol-1-yl)methyl]pyridine], the half-maximal effective concentration (EC50) is less than 0.1 µM.

In the case of `CC(c1cnc(OC(F)F)c(-c2cccc(Cl)c2)c1)n1cncn1` (stereo not drawn) [Example 150, 3-(3-Chlorophenyl)-2-(difluoromethoxy)-5-[1-(1H-1,2,4-triazol-1-yl)ethyl]pyridine], the EC50 was in the range of 0.1 to 1 µM.

`CC(C)(O)c1ccc(Cc2cnc(OC(F)F)c(-c3cccc(Cl)c3)c2)cn1` [Example 252, 2-(5-{[5-(3-Chlorophenyl)-6-(difluoromethoxy)pyridin-3-yl]methyl}pyridin-2-yl)propan-2-ol] came in with an EC50 of 0.1 to 1 µM.

With `COc1ncc(Cc2cnoc2)nc1-c1cccc(Cl)c1` [Example 95, 3-(3-Chlorophenyl)-2-methoxy-5-(1,2-oxazol-4-ylmethyl)pyrazine], the EC50 is less than 0.1 µM.

`COc1ncc(Cc2cncnc2)cc1-c1cccc(Cl)c1` [Example 78, 5-{[5-(3-Chlorophenyl)-6-methoxypyridin-3-yl]methyl}pyrimidine] came in with a concentration giving a half-maximal response (EC50) of less than 0.1 µM.

The compound `COc1ncc(Cn2cnc(CF)n2)cc1-c1cccc(OC(F)F)c1` [Example 253, 3-[3-(Difluoromethoxy)phenyl]-5-{[3-(fluoromethyl)-1H-1,2,4-triazol-1-yl]methyl}-2-methoxypyridine] registered a 50% effective concentration (EC50) of less than 0.1 µM.

In the case of `CCOc1ncc(Cn2cnc(C3CC3)n2)nc1-c1cccc(OC(F)F)c1` [Example 186, 5-[(3-Cyclopropyl-1H-1,2,4-triazol-1-yl)methyl]-3-[3-(difluoromethoxy)phenyl]-2-ethoxypyrazine], the concentration for a half-maximal effect (EC50) was 1 to 10 µM.

`COc1ncc(C(O)c2ccc(F)cc2)cc1-c1cccc(Cl)c1` (stereo not drawn) [Example 14, [5-(3-Chlorophenyl)-6-methoxypyridin-3-yl](4-fluorophenyl)methanol] had an EC50 of 0.1 to 1 µM.

`Nc1ncc(Cc2cnc(OC(F)F)c(-c3cccc(Cl)c3)c2)s1` [Example 36, 5-{[5-(3-Chlorophenyl)-6-(difluoromethoxy)pyridin-3-yl]methyl}-1,3-thiazol-2-amine] had a 50% effective concentration (EC50) of less than 0.1 µM.

For the compound `COc1ncc(Cc2cnn(C)c2)nc1-c1cccc(Cl)c1` [Example 58, 3-(3-Chlorophenyl)-2-methoxy-5-[(1-methyl-1H-pyrazol-4-yl)methyl]pyrazine], the EC50 was less than 0.1 µM.

`COC(=O)c1ncnn1Cc1cnc(OC)c(-c2cccc(Cl)c2)c1` [Example 140, Methyl 1-{[5-(3-chlorophenyl)-6-methoxypyridin-3-yl]methyl}-1H-1,2,4-triazole-5-carboxylate] yielded a concentration for a half-maximal effect (EC50) greater than 10 µM.

The compound `COc1cccc(-c2cc(Cn3cncn3)cnc2OC(F)F)c1` [Example 175, 2-(Difluoromethoxy)-3-(3-methoxyphenyl)-5-(1H-1,2,4-triazol-1-ylmethyl)pyridine] yielded an EC50 greater than 10 µM.

Turning to `CCOc1ncc(Cc2cnc(C(N)=O)nc2)cc1-c1cccc(OC(F)F)c1` [Example 119, 5-({5-[3-(Difluoromethoxy)phenyl]-6-ethoxypyridin-3-yl}methyl)pyrimidine-2-carboxamide], the EC50 is less than 0.1 µM.

In turn, `COc1ncc(Cc2ccc(C#N)cc2)nc1-c1cccc(Cl)c1` [Example 86, 4-{[6-(3-Chlorophenyl)-5-methoxypyrazin-2-yl]methyl}benzonitrile] returned a concentration giving a half-maximal response (EC50) of 0.1 to 1 µM.

Regarding `COc1ncc(Cn2cnc(N)n2)cc1-c1cccc(Cl)c1` [Example 218, 1-{[5-(3-Chlorophenyl)-6-methoxypyridin-3-yl]methyl}-1H-1,2,4-triazol-3-amine], the EC50 was in the range of 0.1 to 1 µM.

Regarding `CCOC(=O)C1(c2ccc(Cc3cnc(OC(F)F)c(-c4cccc(Cl)c4)c3)cc2)CC1` [Example 101, Ethyl 1-(4-{[5-(3-chlorophenyl)-6-(difluoromethoxy)pyridin-3-yl]methyl}phenyl)cyclopropane-1-carboxylate], the concentration giving a half-maximal response (EC50) was 1 to 10 µM.

`COc1ncc(Cn2ccnc2)cc1-c1cccc(Cl)c1` [Example 173, 3-(3-Chlorophenyl)-5-(1H-imidazol-1-ylmethyl)-2-methoxypyridine]: the EC50 was less than 0.1 µM.

In the case of `FC(F)Oc1ncc(Cc2cnc(NCC(F)(F)F)nc2)cc1-c1cccc(Cl)c1` [Example 94, 5-{[5-(3-Chlorophenyl)-6-(difluoromethoxy)pyridin-3-yl]methyl}-N-(2,2,2-trifluoroethyl)pyrimidin-2-amine], the EC50 lay within 0.1 to 1 µM.

In turn, `CCOc1ncc(Cn2ncnc2C(F)(F)F)cc1-c1cccc(Cl)c1` [Example 153, 3-(3-Chlorophenyl)-2-ethoxy-5-{[5-(trifluoromethyl)-1H-1,2,4-triazol-1-yl]methyl}pyridine] had an EC50 of less than 0.1 µM.

In turn, `COc1ncc(Cc2cc(C)nc(C)c2)cc1-c1cccc(Cl)c1` [Example 61, 3-(3-Chlorophenyl)-5-[(2,6-dimethylpyridin-4-yl)methyl]-2-methoxypyridine] returned a concentration for a half-maximal effect (EC50) of 1 to 10 µM.

Turning to `COc1ncc(Cn2cnc(CO)n2)nc1-c1cccc(OC(F)F)c1` [Example 211, [1-({6-[3-(Difluoromethoxy)phenyl]-5-methoxypyrazin-2-yl}-methyl)-1H-1,2,4-triazol-3-yl]methanol], the EC50 fell in the range of 0.1 to 1 µM.

Consider `NC(=O)C1(c2ccc(Cc3cnc(OC(F)F)c(-c4cccc(Cl)c4)c3)cc2)CC1` [Example 245, 1-(4-{[5-(3-Chlorophenyl)-6-(difluoromethoxy)pyridin-3-yl]methyl}phenyl)cyclopropane-1-carboxamide], for which the EC50 lay within 0.1 to 1 µM.

In turn, `Nc1ncc(Cc2cnc(OC(F)F)c(-c3cccc(Cl)c3)c2)cn1` [Example 89, 5-{[5-(3-Chlorophenyl)-6-(difluoromethoxy)pyridin-3-yl]methyl}pyrimidin-2-amine] showed an EC50 of less than 0.1 µM.

Consider `COc1ncc(Cc2cnc(NC3CC3)nc2)cc1-c1cccc(Cl)c1` [Example 82, 5-{[5-(3-Chlorophenyl)-6-methoxypyridin-3-yl]methyl}-N-cyclopropylpyrimidin-2-amine], for which the half-maximal effective concentration (EC50) was less than 0.1 µM.

For `COc1ncc(Cn2cnc(N)n2)cc1-c1cncc(Cl)c1` [Example 228, 1-{[5-(5-Chloropyridin-3-yl)-6-methoxypyridin-3-yl]methyl}-1H-1,2,4-triazol-3-amine], the EC50 is 1 to 10 µM.

As for `COc1ncc(C(O)c2ccc(F)cn2)cc1-c1cccc(Cl)c1` (stereo not drawn) [Example 16, [5-(3-Chlorophenyl)-6-methoxypyridin-3-yl](5-fluoropyridin-2-yl)methanol], the concentration giving a half-maximal response (EC50) fell in the range of 1 to 10 µM.

Source of the values: US9120770B2, “Substituted pyridine and pyrazine compounds as PDE4 inhibitors” (DART NEUROSCIENCE (CAYMAN) LTD., priority 2013, dated 2015).
